What was measured:
[1] = target: 5-hydroxytryptamine receptor 1A (Homo sapiens) (UniProt P08908); settings: Compound concentration 10.0 uM
[2] = target: Cyclin-dependent kinase 16 (Homo sapiens) (UniProt Q00536); assay: PCTK1 SGC Tm panel (DSF); settings: Compound concentration 20.0 uM
[3] = target: Cyclin-G-associated kinase (Homo sapiens) (UniProt O14976); assay: GAK SGC Tm panel (DSF); settings: Compound concentration 20.0 uM
[4] = target: Calcium/calmodulin-dependent protein kinase type 1G (Homo sapiens) (UniProt Q96NX5); assay: CAMK1G SGC Tm panel (DSF); settings: Compound concentration 20.0 uM
[5] = target: T1, Zinc finger protein 131 (Homo sapiens) (UniProt P52739); settings: SUD4, Compound concentration 1.0 uM
T1 sequence (whole entry): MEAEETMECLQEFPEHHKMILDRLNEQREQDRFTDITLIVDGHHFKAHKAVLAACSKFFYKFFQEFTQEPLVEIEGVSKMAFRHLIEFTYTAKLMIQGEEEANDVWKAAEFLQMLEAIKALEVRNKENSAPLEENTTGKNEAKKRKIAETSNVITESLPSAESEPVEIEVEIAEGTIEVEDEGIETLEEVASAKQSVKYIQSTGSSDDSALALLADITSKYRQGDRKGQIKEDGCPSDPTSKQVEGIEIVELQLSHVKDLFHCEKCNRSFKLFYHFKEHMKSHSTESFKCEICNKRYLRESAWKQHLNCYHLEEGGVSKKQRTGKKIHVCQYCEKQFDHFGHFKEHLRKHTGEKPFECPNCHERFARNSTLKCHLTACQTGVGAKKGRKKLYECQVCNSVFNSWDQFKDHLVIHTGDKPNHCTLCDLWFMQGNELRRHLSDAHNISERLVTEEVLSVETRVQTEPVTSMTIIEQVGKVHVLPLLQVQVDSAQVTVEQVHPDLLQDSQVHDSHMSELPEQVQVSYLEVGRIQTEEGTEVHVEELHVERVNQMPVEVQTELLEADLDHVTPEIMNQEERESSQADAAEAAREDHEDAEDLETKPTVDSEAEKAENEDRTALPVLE

[6] = target: T2, Zinc finger and BTB domain-containing protein 1 (Homo sapiens) (UniProt Q9Y2K1); settings: SUD4, Compound concentration 1.0 uM
T2 sequence (whole entry): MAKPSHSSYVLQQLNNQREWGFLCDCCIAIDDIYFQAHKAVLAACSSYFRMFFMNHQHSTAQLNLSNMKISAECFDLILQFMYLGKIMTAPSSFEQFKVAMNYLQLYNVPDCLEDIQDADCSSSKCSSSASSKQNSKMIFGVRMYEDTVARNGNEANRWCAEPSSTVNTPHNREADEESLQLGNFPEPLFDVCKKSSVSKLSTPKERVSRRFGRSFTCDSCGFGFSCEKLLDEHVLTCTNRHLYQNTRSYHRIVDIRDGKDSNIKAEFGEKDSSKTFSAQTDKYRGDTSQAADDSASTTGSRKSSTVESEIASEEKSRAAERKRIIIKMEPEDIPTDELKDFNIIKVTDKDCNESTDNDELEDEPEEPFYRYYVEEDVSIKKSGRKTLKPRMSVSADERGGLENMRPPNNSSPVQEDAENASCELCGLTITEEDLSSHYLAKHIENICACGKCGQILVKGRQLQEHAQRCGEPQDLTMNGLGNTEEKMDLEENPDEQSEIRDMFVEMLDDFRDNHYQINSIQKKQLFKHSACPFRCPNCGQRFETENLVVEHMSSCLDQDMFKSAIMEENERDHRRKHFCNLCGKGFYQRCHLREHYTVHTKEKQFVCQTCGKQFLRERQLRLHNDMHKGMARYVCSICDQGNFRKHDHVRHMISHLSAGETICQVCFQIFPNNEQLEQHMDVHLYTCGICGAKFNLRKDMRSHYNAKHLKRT

Cyclin-G-associated kinase (Homo sapiens), sequence (O14976 whole entry): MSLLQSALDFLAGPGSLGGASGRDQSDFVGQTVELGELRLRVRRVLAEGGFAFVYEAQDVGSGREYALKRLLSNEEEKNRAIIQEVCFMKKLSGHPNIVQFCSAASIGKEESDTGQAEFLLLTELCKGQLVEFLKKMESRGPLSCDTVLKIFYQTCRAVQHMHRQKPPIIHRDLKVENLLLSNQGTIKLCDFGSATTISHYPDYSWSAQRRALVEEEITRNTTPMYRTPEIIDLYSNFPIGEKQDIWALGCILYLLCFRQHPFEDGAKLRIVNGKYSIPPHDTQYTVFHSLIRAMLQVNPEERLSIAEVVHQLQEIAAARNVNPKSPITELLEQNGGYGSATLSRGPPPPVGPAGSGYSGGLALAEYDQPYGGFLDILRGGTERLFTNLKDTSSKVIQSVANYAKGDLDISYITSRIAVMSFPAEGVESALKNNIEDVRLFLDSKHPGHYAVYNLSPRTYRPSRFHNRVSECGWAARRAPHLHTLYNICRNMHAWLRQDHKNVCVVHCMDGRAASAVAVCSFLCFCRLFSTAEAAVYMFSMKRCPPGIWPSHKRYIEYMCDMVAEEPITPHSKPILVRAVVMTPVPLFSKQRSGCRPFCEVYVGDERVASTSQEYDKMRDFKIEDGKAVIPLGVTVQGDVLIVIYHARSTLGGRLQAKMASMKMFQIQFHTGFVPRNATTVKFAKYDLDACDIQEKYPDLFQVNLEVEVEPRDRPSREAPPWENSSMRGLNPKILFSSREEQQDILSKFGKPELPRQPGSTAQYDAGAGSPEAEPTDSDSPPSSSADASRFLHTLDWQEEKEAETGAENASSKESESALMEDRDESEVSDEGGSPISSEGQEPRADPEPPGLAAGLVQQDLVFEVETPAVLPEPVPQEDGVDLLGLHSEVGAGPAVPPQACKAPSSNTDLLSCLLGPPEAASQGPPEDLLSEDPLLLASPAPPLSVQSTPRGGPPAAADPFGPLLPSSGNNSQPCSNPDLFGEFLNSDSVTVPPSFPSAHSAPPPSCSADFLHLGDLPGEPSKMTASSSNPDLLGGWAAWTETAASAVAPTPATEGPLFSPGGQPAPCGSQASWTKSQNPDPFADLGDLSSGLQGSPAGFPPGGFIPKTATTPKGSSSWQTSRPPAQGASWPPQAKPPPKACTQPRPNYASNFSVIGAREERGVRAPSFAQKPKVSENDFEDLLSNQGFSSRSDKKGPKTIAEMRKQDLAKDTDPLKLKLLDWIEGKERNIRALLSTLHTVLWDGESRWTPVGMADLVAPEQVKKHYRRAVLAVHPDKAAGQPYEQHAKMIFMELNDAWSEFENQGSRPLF
5-hydroxytryptamine receptor 1A (Homo sapiens), sequence (P08908 whole entry): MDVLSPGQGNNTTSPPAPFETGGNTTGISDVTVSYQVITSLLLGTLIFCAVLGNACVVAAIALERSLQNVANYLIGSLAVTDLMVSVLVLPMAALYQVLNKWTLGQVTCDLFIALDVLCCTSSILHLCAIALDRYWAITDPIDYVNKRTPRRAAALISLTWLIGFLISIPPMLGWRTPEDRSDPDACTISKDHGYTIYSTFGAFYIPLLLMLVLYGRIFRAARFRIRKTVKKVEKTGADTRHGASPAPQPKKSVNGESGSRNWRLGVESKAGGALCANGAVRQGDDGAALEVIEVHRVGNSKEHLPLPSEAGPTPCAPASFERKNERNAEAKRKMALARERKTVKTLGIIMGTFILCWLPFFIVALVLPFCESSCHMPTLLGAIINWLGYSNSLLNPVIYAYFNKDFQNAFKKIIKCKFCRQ
Calcium/calmodulin-dependent protein kinase type 1G (Homo sapiens), sequence (Q96NX5 whole entry): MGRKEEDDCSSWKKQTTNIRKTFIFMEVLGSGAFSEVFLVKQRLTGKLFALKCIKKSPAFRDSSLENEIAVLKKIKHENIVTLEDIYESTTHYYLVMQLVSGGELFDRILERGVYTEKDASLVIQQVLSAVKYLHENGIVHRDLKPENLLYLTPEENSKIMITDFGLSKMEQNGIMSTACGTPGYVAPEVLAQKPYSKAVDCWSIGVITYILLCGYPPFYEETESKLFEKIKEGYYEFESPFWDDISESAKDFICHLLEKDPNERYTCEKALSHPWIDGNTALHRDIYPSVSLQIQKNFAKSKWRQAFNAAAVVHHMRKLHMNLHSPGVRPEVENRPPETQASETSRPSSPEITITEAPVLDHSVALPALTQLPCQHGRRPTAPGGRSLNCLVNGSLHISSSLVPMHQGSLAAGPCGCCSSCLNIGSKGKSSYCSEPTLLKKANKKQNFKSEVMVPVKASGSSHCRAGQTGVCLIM
Cyclin-dependent kinase 16 (Homo sapiens), sequence (Q00536 whole entry): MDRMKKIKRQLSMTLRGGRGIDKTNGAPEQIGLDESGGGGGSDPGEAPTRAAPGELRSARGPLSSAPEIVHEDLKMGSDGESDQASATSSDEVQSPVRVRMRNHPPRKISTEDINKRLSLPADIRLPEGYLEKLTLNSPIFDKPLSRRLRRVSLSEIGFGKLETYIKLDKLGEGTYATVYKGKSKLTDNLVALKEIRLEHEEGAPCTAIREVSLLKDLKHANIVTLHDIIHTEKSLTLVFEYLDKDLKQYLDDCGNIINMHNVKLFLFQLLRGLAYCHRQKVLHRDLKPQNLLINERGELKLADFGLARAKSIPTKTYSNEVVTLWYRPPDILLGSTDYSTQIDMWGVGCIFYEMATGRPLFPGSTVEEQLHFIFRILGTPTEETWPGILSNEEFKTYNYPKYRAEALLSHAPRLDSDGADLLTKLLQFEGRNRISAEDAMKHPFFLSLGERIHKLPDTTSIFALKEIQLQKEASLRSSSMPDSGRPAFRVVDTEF

- inhibition [1]: 5.99%
- Tm [2]: 52 °C
- Tm [3]: 52 °C
- Tm [4]: 44 °C
- LogFC [5]: -0.044
- LogFC [6]: 0.0235
SMILES: C[C@@H]1CN(c2ncc(Cl)c(Nc3ccc4c(c3)n(CCC(C)(C)O)c(=O)n4C)n2)C[C@H](C)C1(F)F
